Source: patent publication US20230077896A1, “MICROBIAL LIPID PRODUCTION UTILIZING POST-FERMENTATION INDUSTRIAL WASTE STREAM FEEDSTOCKS” (C16 Biosciences, Inc., priority 2020, published 2023)
Read-outs that look alike come from different tables or passages of the source.

Assays:
[1] = test system: Pantoea agglomerans; conditions: at concentrations of 10 ppm, single inhibitor; cited from earlier work
[2] = test system: Fusarium avenaceum; conditions: cited from earlier work
[3] = test system: microorganism growth; conditions: tens of micromolar, e.g.; cited from earlier work
[4] = test system: R. toruloides strain A; assay: 4-hydroxybenzaldehyde spike-in titration in YPG media, R. toruloides; format: cell-based, Rhodosporidium toruloides
[5] = test system: Y. lipolytica strain poll g; assay: 4-hydroxybenzaldehyde spike-in titration in YPG media, Y. lipolytica; format: cell-based, Yarrowia lipolytica; conditions: concentrations tested 1 μM-100 mM
[6] = test system: Trichosporon cutaneuin; conditions: Wang et al. 2016; cited from earlier work
[7] = test system: Rhodosporidium toruloides; conditions: Hu et al. 2009; cited from earlier work
[8] = test system: Trichophyton rubrum; conditions: Kamp et al., Mycoses 2005; cited from earlier work
[9] = test system: ethanol-producing yeast and bacteria; conditions: as low as; cited from earlier work
[10] = test system: Aspergillus fumigatus; conditions: Ryan et al. 2011; cited from earlier work
[11] = test system: Pseudoperonospora cubensis; conditions: Zhu et al. 2018; cited from earlier work
[12] = test system: S. cerevisiae; assay: Inhibition of ethanol production by S. cerevisiae (Banergee et al.); format: cell-based, Saccharomyces cerevisiae; conditions: molar conversion in parentheses
Description: In some embodiments, the feedstock comprises furfural. Furfural is also known as furan-2-carboxaldehyde, feral, furfuraldehyde, 2-furaldehyde, and pyromucic aldehyde. Within the art, furfural is a well-known and potent inhibitor of microbial fermentation. […] See also, Sitepu et al., “Carbon source utilization and inhibitor tolerance of 45 oleaginous yeast species,” J Ind Microbiol Biotechnol 2014;41(7):1061-1070. In some embodiments, the feedstock comprises at least 10 μM, 20 μM, 30 μM, 40 μM, 50 μM, 60 μM, 70 μM, 80 μM, 90 μM, 100 μM, 200 μM, 300 μM, 400 μM, 500 μM, 600 μM, 700 μM, 800 μM, 900 μM, 1 mM, 2 mM, 3 mM, 4 mM, 5 mM, 6 mM, 7 mM, 8 mM, 9 mM, 10 mM, 20 mM, 30 mM, 40 mM, 50 mM, 60 mM, 70 mM, 80 mM, 90 mM, or 100 mM furfural, or any ranges or subranges therebetween. In some embodiments, the feedstock comprises at least 10 μM furfural.

[13] = test system: S. cerevisiae; conditions: cited from earlier work
[14] = test system: R. toruloides strain A, R. toruloides strain B; assay: Batch fermentation with glycerol supplement, R. toruloides; format: cell-based, Rhodosporidium toruloides; conditions: 50 g/L glycerol added to 30% corn stillage syrup feedstock, 6 days
Excerpt: (§1) For the purposes of this example, the exemplary feedstock employed was a 30% corn stillage syrup-based feedstock, comprising 30% v/v corn stillage syrup, with insoluble components removed via centrifugation, diluted in deionized water.
(§2) Four strains of oleaginous microorganisms were selected to investigate the potential of the exemplary feedstock to support the growth of oleaginous microorganisms: R. toruloides strain A, R. toruloides strain B, Y. lipolytica strain po 1 g, and L. starkeyi strain CBS 1807. As a control, a canonical non-oleaginous yeast, P. pastoris strain X33, was included for comparison.
(§3) Fermentations were run in batch format for 6 days. Dry cell weight, oil titer and lipid content were evaluated as described in Example 5.
(§4) 50 g/L glycerol was added to the feedstock and fermentations were again run for 6 days. Dry cell weight and oil titer were evaluated and compared to the results of the batch fermentation.

[15] = test system: Y. lipolytica strain po 1 g; assay: Batch fermentation with glycerol supplement, Y. lipolytica; format: cell-based, Yarrowia lipolytica; conditions: 50 g/L glycerol added to 30% corn stillage syrup feedstock, 6 days
Excerpt: as §1, §2, §3, §4

[16] = test system: L. starkeyi strain CBS 1807; assay: Batch fermentation with glycerol supplement, L. starkeyi; format: cell-based, Lipomyces starkeyi; conditions: 50 g/L glycerol added to 30% corn stillage syrup feedstock, 6 days
Excerpt: as §1, §2, §3, §4

[17] = test system: Eutypa lata; conditions: as low as; lowered growth rate even after renewal of culture medium; cited from earlier work
[18] = test system: Saccharomyces cerevisiae; conditions: concentrations in the mM range; cited from earlier work

## CC1(O)CCOC(=O)C1 (racemic) [mevalonic acid lactone, 4-Hydroxy-4-methyltetrahydro-2H-pyran-2-one]
[1]
  inhibition of growth of Pantoea agglomerans: 10-15%
[2]
  growth of Fusarium avenaceum: inhibit the growth
[3]
  concentration at which it can act as an inhibitor for microorganism growth: 67 µM

## O=Cc1ccc(O)cc1 [4-hydroxybenzaldehyde]
[4]; 100 μM condition
  increase in oil titer as compared to the no inhibitor control: over 50%
[4]; 10 mM condition
  increase in oil titer as compared to the no inhibitor control: over 50%
[4]; 100 mM inhibitor in YPG media
  growth (DCW) of the R. toruloides strain: inhibited altogether
[4]; all concentrations tested (1 μM-10 mM) except 100 mM, YPG media, vs no inhibitor control
  growth (DCW) of the R. toruloides strain: unaffected
[4]; increasing concentrations between 1 μM and 10 mM
  effect on oil titer of R. toruloides: lipogenic effect
[5]
  effect on growth of the Y. lipolytica strain: no statistically significant effect
  effect on oil production of the Y. lipolytica strain: no statistically significant effect
[6]
  concentration showing inhibition of Trichosporon cutaneum: 16 mM
[7]
  concentration showing inhibition of Rhodosporidium toruloides: 9 mM

## NCC(=O)CCC(=O)O [5-aminolevulinic acid]
[8]
  concentration showing inhibition of Trichophyton rubrum: above 10 mM

## O=Cc1ccc(CO)o1 [HMF, 5-(hydroxymethyl)furfural]
[9]
  concentration of significant inhibition of growth and ethanol production: 8 mM

## O=C(O)C(O)Cc1ccc(O)cc1 (centres unmarked) [Hydroxyphenyllactic acid, 2-Hydroxy-3-(p-hydroxyphenyl)propionic acid]
[10]
  inhibitory concentration: 5 mg/mL

## O=C1CC[C@@H](C(=O)O)N1 [Pyroglutamic acid]
[11]
  inhibitor of fungal species: known inhibitor

## O=Cc1ccco1 [furfural]
[12]; as low as
  concentration inhibiting ethanol production: ~10 mM
[12]; complete inhibition
  concentration of complete inhibition of ethanol production: ~40 mM
[13]; as low as
  concentration inhibiting ethanol production: 0.5 g/L
[13]; complete inhibition
  concentration of complete inhibition of ethanol production: 4 g/L

## OCC(O)CO [glycerol]
[14]
  growth (DCW) with added glycerol vs without: dramatically increased
  oil production with added glycerol vs without: dramatically increased
[15]
  growth (DCW) with added glycerol: significantly less growth
  oil titer with added glycerol: only marginally improved
[16]
  growth (DCW) with added glycerol: significantly less growth
  oil titer with added glycerol: only marginally improved

## O=C(O)c1ccccc1O [salicylic acid]
[10]
  inhibitory concentration: 0.25 mg/mL
[17]
  concentration causing fungistatic effects in Eutypa lata: 1 mM
[18]
  effects against Saccharomyces cerevisiae: fungicidal effects
